From patent publication US11053204B2, “Pyrimidinyloxy benzene derivatives as herbicides” (FMC Corporation, priority 2015, dated 2021)

Assays:
Format in all cases: in vivo
[1] = system: pigweed (Amaranthus retroflexus); assay: Test A preemergence, visual injury rating; conditions: Amaranthus retroflexus, pre-emergence, 240 h, 0 to 100 scale (0 no effect, 100 complete control), read-out: Pigweed plant response rating
Outline: (§1)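 Compounds in non-phytotoxic solvent with surfactant applied as soil spray preemergence, or postemergence to plants 2-10 cm at one- to two-leaf stage, in loam/sand. After approximately 10 days in greenhouse, injury rated visually versus untreated controls, 0 (no effect) to 100 (complete control).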

[2] = system: ragweed (common ragweed, Ambrosia elatior); assay: Test A preemergence, visual injury rating; conditions: Ambrosia artemisiifolia, pre-emergence, 240 h, 0 to 100 scale (0 no effect, 100 complete control), read-out: Ragweed plant response rating
Outline: as §1

[3] = system: giant foxtail (Setaria faberii); assay: Test A preemergence, visual injury rating; conditions: Setaria faberi, pre-emergence, 240 h, 0 to 100 scale (0 no effect, 100 complete control), read-out: Foxtail, Giant plant response rating
Outline: as §1

[4] = system: Italian ryegrass (Lolium multiflorum); assay: Test A preemergence, visual injury rating; conditions: Lolium multiflorum, pre-emergence, 240 h, 0 to 100 scale (0 no effect, 100 complete control), read-out: Ryegrass, Italian plant response rating
Outline: as §1

[5] = system: oilseed rape (Brassica napus); assay: Test C preemergence, plant response rating; conditions: scale 0 to 100; for Oilseed Rape plant response rating: preemergence
Excerpt: (§2) Seeds of plant species selected from blackgrass (Alopecurus myosuroides), ryegrass, Italian (Italian ryegrass, Lolium multiflorum), wheat (winter wheat, Triticum aestivum), galium (catchweed bedstraw, Galium aparine), corn (Zea mays), crabgrass, large (large crabgrass, Digitaria sanguinalis), foxtail, giant (giant foxtail, Setaria faberii), johnsongrass (Sorghum halepense), lambsquarters (Chenopodium album), morningglory (Ipomoea coccinea), nutsedge, yellow (yellow nutsedge, Cyperus esculentus), pigweed (Amaranthus retroflexus), ragweed (common ragweed, Ambrosia elatior), soybean (Glycine max), barnyardgrass (Echinochloa crus-galli), oilseed rape (Brassica napus), pigweed, palmer (palmer pigweed, Amaranthus palmeri), waterhemp (common waterhemp, Amaranthus rudis), velvetleaf (Abutilon theophrasti), kochia (Kochia scoparia), surinam grass (Brachiaria decumbens), nightshade (eastern black nightshade, Solanum ptycanthum), wild poinsettia (Euphorbia heterophylla), windgrass (Apera spica-venti), and oat, wild (wild oat Avena fatua), were planted into a blend of loam soil and sand or a silt loam soil and treated preemergence with test chemicals formulated in a non-phytotoxic solvent mixture which included a surfactant.
(§3) At the same time, plants selected from these crop and weed species and also chickweed (common chickweed, Stellaria media), buckwheat, wild (wild buckwheat, Polygonum convolvulus), wild mustard (Sinapis arvensis), field poppy (Papaver rhoeas), field violet (Viola arvensis), geranium, cutleaf (cutleaf geranium, Geranium dissectum), Canada thistle (Cirsium arvense), and speedwell (bird's-eye speedwell, Veronica persica), were planted in pots containing Sunshine Redi-Earth® planting medium comprising spaghnum peat moss, vermiculite, starter nutrients and dolomitic limestone and treated with postemergence applications of test chemicals formulated in the same manner. Plants ranged in height from 2 to 18 cm (1- to 4-leaf stage) for postemergence treatments. Treated plants and controls were maintained in a greenhouse for 13 to 15 d, after which time all species were compared to controls and visually evaluated. Plant response ratings, summarized in Table C, are based on a scale of 0 to 100 where 0 is no effect and 100 is complete control. A dash (-) response means no test result.

[6] = system: crabgrass, large (large crabgrass, Digitaria sanguinalis); assay: Test C preemergence, plant response rating; conditions: scale 0 to 100; for Crabgrass, Large plant response rating: preemergence
Excerpt: as §2, §3

[7] = system: waterhemp (common waterhemp, Amaranthus rudis); assay: Test C preemergence, plant response rating; conditions: scale 0 to 100; for Waterhemp plant response rating: preemergence
Excerpt: as §2, §3

corn (Zea mays) = assay: Test C preemergence, plant response rating; conditions: scale 0 to 100; for Corn plant response rating: preemergence
Excerpt: as §2, §3

[8] = system: velvetleaf (Abutilon theophrasti); assay: Test C preemergence, plant response rating; conditions: scale 0 to 100; for Velvetleaf plant response rating: preemergence
Excerpt: as §2, §3

[9] = system: foxtail, giant (giant foxtail, Setaria faberii); assay: Test C preemergence, plant response rating; conditions: scale 0 to 100; for Foxtail, Giant plant response rating: preemergence
Excerpt: as §2, §3

[10] = system: lambsquarters (Chenopodium album); assay: Test C preemergence, plant response rating; conditions: scale 0 to 100; for Lambsquarters plant response rating: preemergence
Excerpt: as §2, §3

[11] = system: ragweed (common ragweed, Ambrosia elatior); assay: Test C preemergence, plant response rating; conditions: scale 0 to 100; for Ragweed plant response rating: preemergence
Excerpt: as §2, §3

[12] = system: nutsedge, yellow (yellow nutsedge, Cyperus esculentus); assay: Test C preemergence, plant response rating; conditions: scale 0 to 100; for Nutsedge, Yellow plant response rating: preemergence
Excerpt: as §2, §3

[13] = system: ryegrass, Italian (Italian ryegrass, Lolium multiflorum); assay: Test C preemergence, plant response rating; conditions: scale 0 to 100; for Ryegrass, Italian plant response rating: preemergence
Excerpt: as §2, §3

[14] = system: blackgrass (Alopecurus myosuroides); assay: Test C preemergence, plant response rating; conditions: scale 0 to 100; for Blackgrass plant response rating: preemergence
Excerpt: as §2, §3

[15] = system: wheat (winter wheat, Triticum aestivum); assay: Test C preemergence, plant response rating; conditions: scale 0 to 100; for Wheat plant response rating: preemergence
Excerpt: as §2, §3

[16] = system: morningglory (Ipomoea coccinea); assay: Test C preemergence, plant response rating; conditions: scale 0 to 100; for Morningglory plant response rating: preemergence
Excerpt: as §2, §3

soybean (Glycine max) = assay: Test C preemergence, plant response rating; conditions: scale 0 to 100; for Soybean plant response rating: preemergence
Excerpt: as §2, §3

CCCOC(=O)c1c(Br)cccc1Oc1ncc(Cl)cn1 [Compound 13, propyl 2-bromo-6-[(5-chloro-2-pyrimidinyl)oxy]benzoate]
pest or weed control at 125 g/ha ([1]; 125 g ai/ha): 100%
pest or weed control at 500 g/ha ([1]; 500 g ai/ha): 100%
pest or weed control at 125 g/ha ([2]; 125 g ai/ha): 0%
pest or weed control at 500 g/ha ([2]; 500 g ai/ha): 0%
pest or weed control at 125 g/ha ([3]; 125 g ai/ha): 100%
pest or weed control at 500 g/ha ([3]; 500 g ai/ha): 100%
pest or weed control at 125 g/ha ([4]; 125 g ai/ha): 10%
pest or weed control at 500 g/ha ([4]; 500 g ai/ha): 90%
plant injury at 16 g/ha ([5]; Brassica napus, pre-emergence, Preemergence, 16 g ai/ha): 0%
plant injury at 31 g/ha ([5]; Brassica napus, pre-emergence, Preemergence, 31 g ai/ha): 50%
Oilseed Rape plant response rating ([5]; 4 g ai/ha): 0
Oilseed Rape plant response rating ([5]; 8 g ai/ha): 0
pest or weed control at 16 g/ha ([6]; Digitaria sanguinalis, pre-emergence, Preemergence, 16 g ai/ha): 60%
pest or weed control at 31 g/ha ([6]; Digitaria sanguinalis, pre-emergence, Preemergence, 31 g ai/ha): 85%
Crabgrass, Large plant response rating ([6]; 4 g ai/ha): 25
Crabgrass, Large plant response rating ([6]; 8 g ai/ha): 30
pest or weed control at 16 g/ha ([7]; Amaranthus tuberculatus, pre-emergence, Preemergence, 16 g ai/ha): 80%
pest or weed control at 31 g/ha ([7]; Amaranthus tuberculatus, pre-emergence, Preemergence, 31 g ai/ha): 100%
Waterhemp plant response rating ([7]; 4 g ai/ha): 5
Waterhemp plant response rating ([7]; 8 g ai/ha): 10
Corn plant response rating (crop injury, 0 = no effect, 100 = complete kill) at 16 g/ha (corn (Zea mays); Zea mays, pre-emergence, Preemergence, 16 g ai/ha): 5%
Corn plant response rating (crop injury, 0 = no effect, 100 = complete kill) at 31 g/ha (corn (Zea mays); Zea mays, pre-emergence, Preemergence, 31 g ai/ha): 10%
Corn plant response rating (corn (Zea mays); 4 g ai/ha): 0
Corn plant response rating (corn (Zea mays); 8 g ai/ha): 0
pest or weed control at 16 g/ha ([8]; Abutilon theophrasti, pre-emergence, Preemergence, 16 g ai/ha): 20%
pest or weed control at 31 g/ha ([8]; Abutilon theophrasti, pre-emergence, Preemergence, 31 g ai/ha): 70%
Velvetleaf plant response rating ([8]; 4 g ai/ha): 5
Velvetleaf plant response rating ([8]; 8 g ai/ha): 10
pest or weed control at 16 g/ha ([9]; Setaria faberi, pre-emergence, Preemergence, 16 g ai/ha): 0%
pest or weed control at 31 g/ha ([9]; Setaria faberi, pre-emergence, Preemergence, 31 g ai/ha): 95%
Foxtail, Giant plant response rating ([9]; 4 g ai/ha): 0
Foxtail, Giant plant response rating ([9]; 8 g ai/ha): 0
pest or weed control at 16 g/ha ([10]; Chenopodium album, pre-emergence, Preemergence, 16 g ai/ha): 50%
pest or weed control at 31 g/ha ([10]; Chenopodium album, pre-emergence, Preemergence, 31 g ai/ha): 15%
Lambsquarters plant response rating ([10]; 4 g ai/ha): 0
Lambsquarters plant response rating ([10]; 8 g ai/ha): 5
pest or weed control at 16 g/ha ([11]; Ambrosia artemisiifolia, pre-emergence, Preemergence, 16 g ai/ha): 0%
pest or weed control at 31 g/ha ([11]; Ambrosia artemisiifolia, pre-emergence, Preemergence, 31 g ai/ha): 10%
Ragweed plant response rating ([11]; 4 g ai/ha): 0
Ragweed plant response rating ([11]; 8 g ai/ha): 0
pest or weed control at 16 g/ha ([12]; Cyperus, pre-emergence, Preemergence, 16 g ai/ha): 0%
pest or weed control at 31 g/ha ([12]; Cyperus, pre-emergence, Preemergence, 31 g ai/ha): 5%
Nutsedge, Yellow plant response rating ([12]; 4 g ai/ha): 0
Nutsedge, Yellow plant response rating ([12]; 8 g ai/ha): 0
pest or weed control at 16 g/ha ([13]; Lolium multiflorum, pre-emergence, Preemergence, 16 g ai/ha): 0%
pest or weed control at 31 g/ha ([13]; Lolium multiflorum, pre-emergence, Preemergence, 31 g ai/ha): 0%
Ryegrass, Italian plant response rating ([13]; 4 g ai/ha): 0
Ryegrass, Italian plant response rating ([13]; 8 g ai/ha): 0
pest or weed control at 16 g/ha ([14]; Alopecurus myosuroides, pre-emergence, Preemergence, 16 g ai/ha): 0%
pest or weed control at 31 g/ha ([14]; Alopecurus myosuroides, pre-emergence, Preemergence, 31 g ai/ha): 0%
Blackgrass plant response rating ([14]; 4 g ai/ha): 0
Blackgrass plant response rating ([14]; 8 g ai/ha): 0
plant injury at 16 g/ha ([15]; Triticum aestivum, pre-emergence, Preemergence, 16 g ai/ha): 0%
plant injury at 31 g/ha ([15]; Triticum aestivum, pre-emergence, Preemergence, 31 g ai/ha): 5%
Wheat plant response rating ([15]; 4 g ai/ha): 0
Wheat plant response rating ([15]; 8 g ai/ha): 0
pest or weed control at 16 g/ha ([16]; Ipomoea, pre-emergence, Preemergence, 16 g ai/ha): 5%
pest or weed control at 31 g/ha ([16]; Ipomoea, pre-emergence, Preemergence, 31 g ai/ha): 5%
Morningglory plant response rating ([16]; 4 g ai/ha): 0
Morningglory plant response rating ([16]; 8 g ai/ha): 0
plant injury at 16 g/ha (soybean (Glycine max); Glycine max, pre-emergence, Preemergence, 16 g ai/ha): 5%
plant injury at 31 g/ha (soybean (Glycine max); Glycine max, pre-emergence, Preemergence, 31 g ai/ha): 5%
Soybean plant response rating (soybean (Glycine max); 4 g ai/ha): 0
Soybean plant response rating (soybean (Glycine max); 8 g ai/ha): 0
